According to ChEMBL document CHEMBL1201862, “PubChem BioAssay data set” (2004):
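Values below derive from 48-hour exposures of cells grown in 96-well plates, with endpoints linearly interpolated between the two concentrations bracketing the appropriate inhibition level. GI50: concentration for 50% inhibition of growth.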 The source made the active and inactive calls. Rule as the data show it: active = GI50 up to about 1.1 µM and inactive = higher.

Key:
Assay in all cases: NCI anticancer screen, dose series, 48 h
786-0 = tested on: 786-0
A498 = tested on: A498
A549 = tested on: A549
ACHN = tested on: ACHN
BT-549 = tested on: BT-549
CAKI-1 = tested on: CAKI-1
DU-145 = tested on: DU-145
EKVX = tested on: EKVX
HCC 2998 = tested on: HCC 2998
HCT-116 = tested on: HCT-116
HCT-15 = tested on: HCT-15
HL-60 = tested on: HL-60
HOP-62 = tested on: HOP-62
HOP-92 = tested on: HOP-92
HT-29 = tested on: HT-29
Hs-578T = tested on: Hs-578T
IGROV-1 = tested on: IGROV-1
K562 = tested on: K562
KM12 = tested on: KM12
LOX IMVI = tested on: LOX IMVI
M14 = tested on: M14
MDA-MB-231 = tested on: MDA-MB-231
MDA-MB-435 = tested on: MDA-MB-435
MDA-N = tested on: MDA-N
MOLT-4 = tested on: MOLT-4
Malme-3M = tested on: Malme-3M
NCI-H226 = tested on: NCI-H226
NCI-H23 = tested on: NCI-H23
NCI-H460 = tested on: NCI-H460
NCI-H522 = tested on: NCI-H522
NCI/ADR-RES = tested on: NCI/ADR-RES
OVCAR-3 = tested on: OVCAR-3
OVCAR-4 = tested on: OVCAR-4
OVCAR-5 = tested on: OVCAR-5
OVCAR-8 = tested on: OVCAR-8
PC-3 = tested on: PC-3
RPMI-8226 = tested on: RPMI-8226
RXF 393 = tested on: RXF 393
SF-268 = tested on: SF-268
SF-295 = tested on: SF-295
SK-MEL-28 = tested on: SK-MEL-28
SK-MEL-2 = tested on: SK-MEL-2
SK-MEL-5 = tested on: SK-MEL-5
SN12C = tested on: SN12C
SNB-19 = tested on: SNB-19
SR = tested on: SR
SW-620 = tested on: SW-620
T47D = tested on: T47D
TK-10 = tested on: TK-10
U-251 = tested on: U-251
UACC-257 = tested on: UACC-257
UACC-62 = tested on: UACC-62
UO-31 = tested on: UO-31
CCRF-CEM = tested on: CCRF-CEM
COLO 205 = tested on: COLO 205
MCF7 = tested on: MCF7
SF-539 = tested on: SF-539
SK-OV-3 = tested on: SK-OV-3
SNB-75 = tested on: SNB-75

Measured: GI50

Cc1cc(OCC(=O)O)c(Cl)cc1Cl
> 100 µM: HCT-15
inactive: 786-0 > 100 µM | A498 > 100 µM | A549 > 100 µM | ACHN > 100 µM | BT-549 > 100 µM | CAKI-1 > 100 µM | DU-145 > 100 µM | EKVX > 100 µM | HCC 2998 > 100 µM | HCT-116 > 100 µM | HL-60 > 100 µM | HOP-62 > 100 µM | HOP-92 > 100 µM | HT-29 > 100 µM | Hs-578T > 100 µM | IGROV-1 > 100 µM | K562 > 100 µM | KM12 > 100 µM | LOX IMVI > 100 µM | M14 > 100 µM | MDA-MB-231 > 100 µM | MDA-MB-435 > 100 µM | MDA-N > 100 µM | MOLT-4 > 100 µM | Malme-3M > 100 µM | NCI-H226 > 100 µM | NCI-H23 > 100 µM | NCI-H460 > 100 µM | NCI-H522 > 100 µM | NCI/ADR-RES > 100 µM | OVCAR-3 > 100 µM | OVCAR-4 > 100 µM | OVCAR-5 > 100 µM | OVCAR-8 > 100 µM | PC-3 > 100 µM | RPMI-8226 81.3 µM | RXF 393 > 100 µM | SF-268 > 100 µM | SF-295 > 100 µM | SK-MEL-28 > 100 µM | SK-MEL-2 > 100 µM | SK-MEL-5 > 100 µM | SN12C > 100 µM | SNB-19 > 100 µM | SR > 100 µM | SW-620 > 100 µM | T47D > 100 µM | TK-10 > 100 µM | U-251 > 100 µM | UACC-257 > 100 µM | UACC-62 > 100 µM | UO-31 > 100 µM

O=c1c(-c2ccccc2Cl)coc2cc(F)ccc12
inactive: 786-0 30.4 µM | A498 7.67 µM | A549 23.7 µM | ACHN > 100 µM | BT-549 14.9 µM | CAKI-1 29.1 µM | CCRF-CEM 24.3 µM | COLO 205 44.7 µM | DU-145 27 µM | EKVX 52.6 µM | HCT-116 31.8 µM | HL-60 4.3 µM | HOP-62 22.2 µM | HOP-92 18.6 µM | HT-29 22.5 µM | Hs-578T 28.4 µM | IGROV-1 6.07 µM | KM12 21.5 µM | LOX IMVI 13.2 µM | M14 14.3 µM | MCF7 21.7 µM | MDA-MB-231 19.4 µM | MDA-MB-435 2.1 µM | MDA-N 3.79 µM | MOLT-4 22 µM | NCI-H226 23.4 µM | NCI-H23 37.3 µM | NCI-H460 37.6 µM | NCI-H522 10.6 µM | NCI/ADR-RES 19.5 µM | OVCAR-3 30.7 µM | OVCAR-4 > 100 µM | OVCAR-5 27.1 µM | OVCAR-8 33.7 µM | PC-3 > 100 µM | RXF 393 22.1 µM | SF-268 40.7 µM | SF-295 19.4 µM | SF-539 11.9 µM | SK-MEL-28 63.5 µM | SK-MEL-2 66.4 µM | SK-MEL-5 27.3 µM | SK-OV-3 45.2 µM | SN12C 53.2 µM | SNB-19 22.9 µM | SNB-75 17.5 µM | SW-620 30.6 µM | T47D 45.1 µM | TK-10 47.9 µM | U-251 10.2 µM | UACC-257 23.9 µM | UACC-62 18.2 µM | UO-31 20.4 µM
31.8 µM: HCT-15

COc1ccc(CN/C=N/C(C#N)=C(\N)C#N)cc1OC
inactive: 786-0 > 100 µM | A498 54.8 µM | A549 > 100 µM | ACHN > 100 µM | BT-549 72.3 µM | CAKI-1 > 100 µM | CCRF-CEM > 100 µM | COLO 205 > 100 µM | DU-145 > 100 µM | EKVX > 100 µM | HCC 2998 > 100 µM | HCT-116 > 100 µM | HL-60 > 100 µM | HOP-62 > 100 µM | HT-29 > 100 µM | Hs-578T > 100 µM | IGROV-1 > 100 µM | K562 > 100 µM | KM12 > 100 µM | LOX IMVI > 100 µM | M14 > 100 µM | MCF7 > 100 µM | MDA-MB-231 > 100 µM | MDA-MB-435 > 100 µM | MDA-N > 100 µM | MOLT-4 > 100 µM | Malme-3M > 100 µM | NCI-H226 > 100 µM | NCI-H23 > 100 µM | NCI-H460 > 100 µM | NCI-H522 > 100 µM | NCI/ADR-RES > 100 µM | OVCAR-3 > 100 µM | OVCAR-4 > 100 µM | OVCAR-5 > 100 µM | OVCAR-8 > 100 µM | PC-3 > 100 µM | RPMI-8226 > 100 µM | SF-268 > 100 µM | SF-295 > 100 µM | SF-539 > 100 µM | SK-MEL-28 > 100 µM | SK-MEL-2 > 100 µM | SK-MEL-5 > 100 µM | SK-OV-3 > 100 µM | SN12C > 100 µM | SNB-19 > 100 µM | SNB-75 76.7 µM | SR > 100 µM | SW-620 > 100 µM | T47D 83.6 µM | TK-10 > 100 µM | U-251 > 100 µM | UACC-257 > 100 µM | UACC-62 > 100 µM | UO-31 65 µM
> 100 µM: HCT-15

CCOC(=O)c1[nH]c2nc(SC)nc(NC)c2c1N
84.1 µM: HCT-15
inactive: 786-0 > 100 µM | A498 > 100 µM | A549 > 100 µM | ACHN > 100 µM | BT-549 > 100 µM | CAKI-1 > 100 µM | CCRF-CEM 60 µM | COLO 205 > 100 µM | DU-145 > 100 µM | HCC 2998 87.5 µM | HCT-116 > 100 µM | HOP-62 > 100 µM | HT-29 47.3 µM | Hs-578T > 100 µM | IGROV-1 > 100 µM | K562 90.2 µM | KM12 > 100 µM | LOX IMVI 43.2 µM | M14 92.7 µM | MDA-MB-231 > 100 µM | MDA-MB-435 > 100 µM | MDA-N > 100 µM | MOLT-4 68.2 µM | Malme-3M > 100 µM | NCI-H226 42.8 µM | NCI-H23 > 100 µM | NCI-H460 60.4 µM | NCI-H522 51.4 µM | NCI/ADR-RES 59.6 µM | OVCAR-3 > 100 µM | OVCAR-4 > 100 µM | OVCAR-5 > 100 µM | OVCAR-8 > 100 µM | PC-3 > 100 µM | RPMI-8226 46 µM | RXF 393 > 100 µM | SF-268 > 100 µM | SF-295 > 100 µM | SK-MEL-28 > 100 µM | SK-MEL-2 > 100 µM | SK-MEL-5 30.3 µM | SK-OV-3 > 100 µM | SN12C > 100 µM | SNB-19 > 100 µM | SNB-75 70.5 µM | SW-620 > 100 µM | T47D 83.8 µM | TK-10 > 100 µM | U-251 > 100 µM | UACC-257 > 100 µM | UACC-62 85.7 µM | UO-31 > 100 µM

COc1cc(-c2coc3c(OC)c(OC4OC(COC5OC(C)C(O)C(O)C5O)C(O)C(O)C4O)c(OC)c(O)c3c2=O)cc(C)c1O (stereo unspecified)
16.4 µM: HCT-15
inactive: A549 23.8 µM | ACHN 21.2 µM | BT-549 13.9 µM | CAKI-1 18 µM | CCRF-CEM 5.93 µM | COLO 205 19.6 µM | DU-145 19.6 µM | EKVX 17.2 µM | HCC 2998 16.1 µM | HOP-62 22.1 µM | HOP-92 19.2 µM | HT-29 19.5 µM | Hs-578T 20.7 µM | IGROV-1 17 µM | K562 13.4 µM | KM12 11.7 µM | LOX IMVI 16.5 µM | M14 15.5 µM | MCF7 12.3 µM | MDA-MB-231 32.5 µM | MDA-MB-435 16 µM | MOLT-4 3.73 µM | Malme-3M 18.3 µM | NCI-H23 13.1 µM | NCI-H460 23.2 µM | NCI-H522 12.7 µM | NCI/ADR-RES 17.9 µM | OVCAR-3 13.7 µM | OVCAR-4 18.9 µM | OVCAR-5 21.7 µM | OVCAR-8 23.6 µM | PC-3 24.8 µM | RXF 393 13 µM | SF-268 19.4 µM | SF-295 16.6 µM | SF-539 21.3 µM | SK-MEL-28 15.1 µM | SK-MEL-2 23.8 µM | SK-MEL-5 12.6 µM | SK-OV-3 16.8 µM | SN12C 1.68 µM | SNB-19 13.8 µM | SNB-75 16 µM | SW-620 12.7 µM | T47D 15.5 µM | TK-10 34.8 µM | U-251 15.5 µM | UACC-257 22.3 µM | UACC-62 14.3 µM | UO-31 16.6 µM
active: 786-0 0.178 µM | HCT-116 0.185 µM | MDA-N 0.873 µM
